In experiment [1] the target is T1, pseudokinase domain (JH2) of human TYK2 (Homo sapiens, UniProt P29597).
T1 construct: The pseudokinase domain (JH2) of human JAK (Janus family of cytoplasmic tyrosine kinases) family tyrosine kinase 2 (TYK2); made in house
Kind of experiment: TYK2-JH2 Tracer Binding Assay. To be noted: His-tagged TYK2-JH2 0.200 nM, Tracer 2.00 nM, 30 minutes, TR-FRET; n=1. The source says: The pseudokinase domain (JH2) of human JAK (Janus family of cytoplasmic tyrosine kinases) family tyrosine kinase 2 (TYK2) (Genbank NP_003322) with an N-terminal His6 tag is expressed in baculovirus and purified by HisPur Ni-NTA affinity and Superdex 200 size-exclusion chromatography. The compound prepared in Preparation 11, a conjugate of Alexa Fluor 647 dye (Thermo Fisher Scientific) and a suitable TYK2 JH2 binder, is referred to herein as “the Tracer”. A 3 fold, 10 point serial dilution of compound, Example 1 and Example 2, are prepared in 100% DMSO and 50 nL/well transferred to a Proxiplate-384F white plate (PerkinElmer 6008280) using acoustic liquid handling. Control wells used to determine percent inhibition contained 100% DMSO (50 nL) and either assay buffer containing the Tracer (2.00 nM final concentration) (min, low FRET) or diluted TYK2-JH2 enzyme (0.200 nM final concentration) and the Tracer (2.00 nM final concentration) (max, high FRET). […] After 30 minutes, the plate is counted on a PerkinElmer Envision with the following settings: Excitation (340 nm), Tracer Emission (665 nm) and LanthaScreen Eu-anti-His Antibody Emission (615 nm). The ratio of Tracer Emission (665 nm) over LanthaScreen Eu-anti-His Antibody Emission (615 nm) is determined.

The subject of experiment [2] is IFNα signaling through pSTAT1 in TF1 cells. The experiment can be described thus: Inhibition of IFNα Signaling Through pSTAT1 in TF1 Cells. It is filed as cell-based. To be noted: Homo sapiens, TF-1, 1 hour pre-incubation, 10 ng/mL IFNα2 for 20 minutes, GeoMetric mean (SEM), read-out: IC50 (inhibition of p-Stat1 (Tyr701)). Here is the method:
TF1 cells (ATCC, CL-2003) are grown in RPMI 1640 (GIBCO) supplemented with 10% dialyzed FBS, 0.1 mg/mL Ampicillin and 2 ng/mL granulocyte macrophage colony stimulating factor. TF1 cells (100 K per well) are seeded in a 96-well poly-D-lysine coated plates in serum-free DMEM and incubated overnight at 37° C. under 5% CO2. Example 1 is serially diluted in DMSO, added to the cells, and incubated at 37° C. for 1 hour. Cells are then stimulated with 10 ng/mL IFNα2 at 37° C. for 20 minutes. After removing the medium, the cells are lysed in buffer containing Halt protease and phosphatase inhibitor cocktail (Thermo Scientific #78441) at ambient temperature for 30 minutes. The amount of p-Stat1 (Tyr701) is quantified as light emission at 615 nm using the AlphaLISA SureFire Ultra p-Stat1 (Tyr701) assay kit (Perkin Elmer #ALSU-PST1-A50K) following the vendor's recommended protocol.

The test system of experiment [3] is IL-23 signaling (STAT3 phosphorylation) in Kit225 cells. Kind of experiment: IL23 pSTAT3 AlphaLISA Assay. It is filed as cell-based. To be noted: 1 hour pre-incubation, IL23 25 ng/mL for 30 minutes, GeoMetric mean (SEM), read-out: relative IC50 (IL23 pSTAT3 AlphaLISA). Here is the method:
IL2-dependent Kit225 cells (University of Texas MD Anderson Cancer Center) expressing endogenous IL23 receptors are stably transduced with the Lenti STAT3 Reporter linked to firefly luciferase (SABiosciences CLS-6028L). These cells are used to monitor TYK2 activity by quantifying gene expression caused by STAT3 phosphorylation following induction by IL23 in the presence of IL2 using AlphaLISA technology (TGR Biosciences ALSU-TST3-A50K). The cells are grown in RPMI 1640 (Gibco 22400) supplemented with 10% FBS (Invitrogen 10082), 1×Pen/Strep (Gibco 15140-122), 200 ng/ml Puromycin (Sigma P9620), and fresh 10 ng/ml recombinant human IL2 (R&D Systems 202-IL-50).
For assay preparation, cells are dispensed into Biocoat black poly-d-lysine coated clear bottom 384-well plates (Becton Dickinson Bio-Coat 35-4640) in DMEM (Sigma D5796) at 300,000 cells/well and allowed to incubate overnight at 37° C. Compounds solubilized in DMSO are serially diluted 1:3 to produce a 10-point concentration response curve (final DMSO=0.1%). Cells are pre-incubated with Example 1 for 1 hour at 37° C., then stimulated with IL23 (25 ng/mL final) for 30 minutes. […] The AlphaLISA reaction is performed following the vendor's recommended protocol, and the […] are measured using an Envision plate reader (Perkin Elmer).

Drawing on patent US12516063B2, “Substituted 7-(methylamino)pyrazolo[1,5-a]pyrimidine-3-carboxamide derivatives for treating autoimmune diseases” (Eli Lilly and Company, priority 2020, dated 2026), this text covers IC50 for 2 compounds.

The structures appear in SMILES notation.

Usually IC50 stands for the concentration at which inhibition is half-maximal.

T1 sequence (P29597 589-875 limits assumed): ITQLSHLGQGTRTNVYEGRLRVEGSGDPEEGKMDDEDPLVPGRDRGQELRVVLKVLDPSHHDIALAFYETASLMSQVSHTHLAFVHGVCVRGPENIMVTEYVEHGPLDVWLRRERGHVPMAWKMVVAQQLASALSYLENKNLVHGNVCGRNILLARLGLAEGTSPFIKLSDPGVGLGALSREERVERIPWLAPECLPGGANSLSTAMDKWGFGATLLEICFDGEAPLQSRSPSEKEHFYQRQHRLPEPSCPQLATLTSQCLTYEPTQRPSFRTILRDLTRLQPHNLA

Take `CCOc1cccc(Nc2cc(NC)n3ncc(C(=O)N[C@@H]4CCN(C)C4=O)c3n2)n1` [Example 1, 5-[(6-Ethoxy-2-pyridyl)amino]-7-(methylamino)-N-[(3R)-1-methyl-2-oxo-pyrrolidin-3-yl]pyrazolo[1,5-a]pyrimidine-3-carboxamide]: the values for the IC50 in experiment [1], in experiment [2] and in experiment [3] were under 0.254 nM, 38 nM and 29 nM, respectively.

With `CNc1cc(Nc2cc(C)cc(C)n2)nc2c(C(=O)N[C@@H]3CCN(C)C3=O)cnn12` [Example 2, 5-[(4,6-Dimethyl-2-pyridyl)amino]-7-(methylamino)-N-[(3R)-1-methyl-2-oxo-pyrrolidin-3-yl]pyrazolo[1,5-a]pyrimidine-3-carboxamide], the IC50 in experiment [1] is under 0.254 nM; in experiment [2], 84 nM; in experiment [3] it was 60 nM.
